Laboratory results taken from ChEMBL document CHEMBL4507262, “Data for DCP probe A-1596586” (2021).

How the values were obtained:
[1] = molecular target: Acetylcholinesterase (Homo sapiens) (UniProt P22303); experiment: Acetylcholinesterase (h) Eurofins-Cerep enzyme and uptake assay; conditions: Compound concentration 10.0 uM
[2] = molecular target: Adenosine receptor A2a (Homo sapiens) (UniProt P29274); experiment: A2A (h) Eurofins-Cerep binding assay; parameters: ligand concentration 6 nM; conditions: filed as agonist, Compound concentration 10.0 uM
[3] = molecular target: B2 bradykinin receptor (Homo sapiens) (UniProt P30411); experiment: B2 (h) Eurofins-Cerep binding assay; parameters: ligand concentration 0.3 nM; conditions: filed as agonist, Compound concentration 10.0 uM
[4] = molecular target: Substance-P receptor (Homo sapiens) (UniProt P25103); experiment: NK1 (h) Eurofins-Cerep binding assay; parameters: ligand concentration 0.05 nM; conditions: filed as agonist, Compound concentration 10.0 uM
[5] = molecular target: Estrogen receptor (Homo sapiens) (UniProt P03372); experiment: Estrogen ER alpha (h) Eurofins-Cerep binding assay; parameters: ligand concentration 0.5 nM; conditions: filed as agonist, Compound concentration 10.0 uM
[6] = molecular target: Sulfonylurea receptors; K-ATP channels (Rattus norvegicus) (UniProt Q63563+P70673+Q63664+Q09429); experiment: KATP channel Eurofins-Cerep binding assay; assay type: protein-complex assay; parameters: ligand concentration 0.1 nM; conditions: filed as antagonist, Compound concentration 10.0 uM
Rattus norvegicus = organism: Rattus norvegicus; experiment: SKCa channel Eurofins-Cerep binding assay; parameters: ligand concentration 0.007 nM; conditions: filed as antagonist, Compound concentration 10.0 uM
[7] = molecular target: Ankyrin repeat and protein kinase domain-containing protein 1 (Homo sapiens) (UniProt Q8NFD2); conditions: Compound concentration 1000.0 nM
[8] = molecular target: Tyrosine-protein kinase receptor UFO (Homo sapiens) (UniProt P30530); conditions: Compound concentration 1000.0 nM
[9] = molecular target: Megakaryocyte-associated tyrosine-protein kinase (Homo sapiens) (UniProt P42679); conditions: Compound concentration 1000.0 nM
[10] = molecular target: Discoidin domain-containing receptor 2 (Homo sapiens) (UniProt Q16832); conditions: Compound concentration 1000.0 nM
[11] = molecular target: Dual specificity tyrosine-phosphorylation-regulated kinase 1B (Homo sapiens) (UniProt Q9Y463); conditions: Compound concentration 1000.0 nM
[12] = tested on: Epidermal growth factor receptor (Homo sapiens), P00533 [UNDEFINED MUTATION]; conditions: Compound concentration 1000.0 nM
[13] = tested on: Epidermal growth factor receptor (Homo sapiens), P00533 [UNDEFINED MUTATION]; conditions: Compound concentration 1000.0 nM; remark: listed apart in the source
[14] = tested on: Epidermal growth factor receptor (Homo sapiens), P00533 [UNDEFINED MUTATION]; conditions: Compound concentration 1000.0 nM; remark: listed apart in the source
[15] = molecular target: Mitogen-activated protein kinase 7 (Homo sapiens) (UniProt Q13164); conditions: Compound concentration 1000.0 nM
[16] = tested on: Receptor-type tyrosine-protein kinase FLT3 (Homo sapiens), P36888 [D835V]; conditions: Compound concentration 1000.0 nM
[17] = molecular target: Rhodopsin kinase GRK1 (Homo sapiens) (UniProt Q15835); conditions: Compound concentration 1000.0 nM
[18] = molecular target: Hormonally up-regulated neu tumor-associated kinase (Homo sapiens) (UniProt P57058); conditions: Compound concentration 1000.0 nM
[19] = molecular target: Mitogen-activated protein kinase kinase kinase 1 (Homo sapiens) (UniProt Q13233); conditions: Compound concentration 1000.0 nM
[20] = molecular target: MAP kinase-activated protein kinase 2 (Homo sapiens) (UniProt P49137); conditions: Compound concentration 1000.0 nM
[21] = molecular target: MAP kinase-activated protein kinase 5 (Homo sapiens) (UniProt Q8IW41); conditions: Compound concentration 1000.0 nM
[22] = molecular target: Dual specificity mitogen-activated protein kinase kinase 1 (Homo sapiens) (UniProt Q02750); conditions: Compound concentration 1000.0 nM
[23] = molecular target: Maternal embryonic leucine zipper kinase (Homo sapiens) (UniProt Q14680); conditions: Compound concentration 1000.0 nM
[24] = molecular target: Myosin-IIIb (Homo sapiens) (UniProt Q8WXR4); conditions: Compound concentration 1000.0 nM
[25] = tested on: Phosphatidylinositol 4,5-bisphosphate 3-kinase catalytic subunit alpha isoform (Homo sapiens), P42336 [H1047L]; conditions: Compound concentration 1000.0 nM
[26] = molecular target: Serine/threonine-protein kinase pim-1 (Homo sapiens) (UniProt P11309); conditions: Compound concentration 1000.0 nM
[27] = molecular target: RAF proto-oncogene serine/threonine-protein kinase (Homo sapiens) (UniProt P04049); conditions: Compound concentration 1000.0 nM
[28] = tested on: Proto-oncogene tyrosine-protein kinase receptor Ret (Homo sapiens), P07949 [V804M]; conditions: Compound concentration 1000.0 nM
[29] = molecular target: NUAK family SNF1-like kinase 2 (Homo sapiens) (UniProt Q9H093); conditions: Compound concentration 1000.0 nM
[30] = molecular target: SNF-related serine/threonine-protein kinase (Homo sapiens) (UniProt Q9NRH2); conditions: Compound concentration 1000.0 nM
[31] = molecular target: SRSF protein kinase 3 (Homo sapiens) (UniProt Q9UPE1); conditions: Compound concentration 1000.0 nM
[32] = molecular target: Serine/threonine-protein kinase tousled-like 1 (Homo sapiens) (UniProt Q9UKI8); conditions: Compound concentration 1000.0 nM
[33] = molecular target: Testis-specific serine/threonine-protein kinase 3 (Homo sapiens) (UniProt Q96PN8); conditions: Compound concentration 1000.0 nM
[34] = molecular target: Serine/threonine-protein kinase 32A (Homo sapiens) (UniProt Q8WU08); conditions: Compound concentration 1000.0 nM
[35] = molecular target: Tyrosine-protein kinase Yes (Homo sapiens) (UniProt P07947); conditions: Compound concentration 1000.0 nM
[36] = molecular target: 5-hydroxytryptamine receptor 2B (Homo sapiens) (UniProt P41595); conditions: Compound concentration 10.0 uM
[37] = molecular target: T1, Muscarinic acetylcholine receptor M4 (Homo sapiens) (UniProt P08173); conditions: Compound concentration 10.0 uM
T1 sequence (whole entry): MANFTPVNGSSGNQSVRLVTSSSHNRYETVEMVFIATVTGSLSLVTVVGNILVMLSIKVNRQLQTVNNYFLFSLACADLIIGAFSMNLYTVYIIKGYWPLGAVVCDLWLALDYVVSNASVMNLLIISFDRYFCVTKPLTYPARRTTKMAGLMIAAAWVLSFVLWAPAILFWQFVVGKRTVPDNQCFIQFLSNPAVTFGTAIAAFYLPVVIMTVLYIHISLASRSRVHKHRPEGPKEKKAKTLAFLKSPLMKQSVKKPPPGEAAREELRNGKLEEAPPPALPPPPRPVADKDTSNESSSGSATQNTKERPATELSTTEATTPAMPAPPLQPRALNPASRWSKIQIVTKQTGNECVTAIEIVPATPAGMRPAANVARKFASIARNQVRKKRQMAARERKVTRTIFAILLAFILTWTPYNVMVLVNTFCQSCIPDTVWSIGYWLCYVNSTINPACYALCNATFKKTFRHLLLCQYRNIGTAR

Epidermal growth factor receptor (Homo sapiens), P00533 [UNDEFINED MUTATION], sequence (P00533 whole entry, looked up, change not shown): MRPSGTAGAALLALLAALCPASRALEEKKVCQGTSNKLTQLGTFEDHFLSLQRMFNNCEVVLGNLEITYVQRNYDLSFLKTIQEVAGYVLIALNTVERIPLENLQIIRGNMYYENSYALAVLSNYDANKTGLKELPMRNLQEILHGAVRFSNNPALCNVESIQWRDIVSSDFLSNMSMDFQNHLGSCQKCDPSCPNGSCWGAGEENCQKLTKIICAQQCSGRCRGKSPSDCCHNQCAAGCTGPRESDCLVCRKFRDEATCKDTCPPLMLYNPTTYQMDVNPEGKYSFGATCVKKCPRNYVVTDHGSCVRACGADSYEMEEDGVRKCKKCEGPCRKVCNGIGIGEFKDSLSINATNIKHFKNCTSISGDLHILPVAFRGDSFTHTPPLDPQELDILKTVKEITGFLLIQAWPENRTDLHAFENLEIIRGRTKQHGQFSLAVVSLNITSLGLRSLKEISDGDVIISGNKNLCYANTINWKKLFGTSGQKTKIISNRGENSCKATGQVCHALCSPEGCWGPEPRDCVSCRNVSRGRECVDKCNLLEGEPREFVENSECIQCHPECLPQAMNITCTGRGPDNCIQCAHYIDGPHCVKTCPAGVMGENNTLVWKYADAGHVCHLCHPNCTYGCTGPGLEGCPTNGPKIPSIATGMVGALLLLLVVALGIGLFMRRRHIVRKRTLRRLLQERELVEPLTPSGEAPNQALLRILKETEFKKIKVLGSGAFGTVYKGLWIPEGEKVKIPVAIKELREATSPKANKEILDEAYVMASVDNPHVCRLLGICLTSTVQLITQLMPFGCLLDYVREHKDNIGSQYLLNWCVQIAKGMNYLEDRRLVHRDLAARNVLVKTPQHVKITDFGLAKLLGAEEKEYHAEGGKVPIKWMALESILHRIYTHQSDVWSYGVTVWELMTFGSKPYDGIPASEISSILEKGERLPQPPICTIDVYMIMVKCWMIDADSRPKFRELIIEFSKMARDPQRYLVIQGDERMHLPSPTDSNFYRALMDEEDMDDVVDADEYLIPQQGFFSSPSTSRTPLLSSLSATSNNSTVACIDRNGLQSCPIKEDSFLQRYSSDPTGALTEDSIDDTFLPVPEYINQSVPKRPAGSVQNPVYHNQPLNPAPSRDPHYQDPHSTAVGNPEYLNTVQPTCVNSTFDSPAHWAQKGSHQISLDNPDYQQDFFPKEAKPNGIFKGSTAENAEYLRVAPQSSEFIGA
Serine/threonine-protein kinase pim-1 (Homo sapiens), sequence (P11309 whole entry, looked up): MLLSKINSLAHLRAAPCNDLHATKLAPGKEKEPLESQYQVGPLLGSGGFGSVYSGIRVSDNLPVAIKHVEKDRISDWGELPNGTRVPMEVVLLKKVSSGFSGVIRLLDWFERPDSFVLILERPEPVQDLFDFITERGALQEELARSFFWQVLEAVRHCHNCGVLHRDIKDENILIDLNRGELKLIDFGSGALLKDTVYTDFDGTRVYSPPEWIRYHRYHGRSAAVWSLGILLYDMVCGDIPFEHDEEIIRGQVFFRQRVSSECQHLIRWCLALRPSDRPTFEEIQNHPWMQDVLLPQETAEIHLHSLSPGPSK
Substance-P receptor (Homo sapiens), sequence (P25103 whole entry): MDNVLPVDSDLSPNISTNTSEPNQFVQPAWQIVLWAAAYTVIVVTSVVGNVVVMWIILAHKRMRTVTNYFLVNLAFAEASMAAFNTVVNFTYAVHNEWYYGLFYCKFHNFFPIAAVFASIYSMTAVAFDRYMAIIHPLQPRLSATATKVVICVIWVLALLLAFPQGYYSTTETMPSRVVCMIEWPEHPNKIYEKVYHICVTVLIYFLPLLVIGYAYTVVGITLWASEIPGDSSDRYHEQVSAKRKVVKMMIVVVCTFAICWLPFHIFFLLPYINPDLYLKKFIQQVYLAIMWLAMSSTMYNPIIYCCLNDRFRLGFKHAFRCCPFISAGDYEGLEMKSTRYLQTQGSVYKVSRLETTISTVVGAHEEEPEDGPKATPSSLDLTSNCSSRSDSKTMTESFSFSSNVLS
RAF proto-oncogene serine/threonine-protein kinase (Homo sapiens), sequence (P04049 whole entry): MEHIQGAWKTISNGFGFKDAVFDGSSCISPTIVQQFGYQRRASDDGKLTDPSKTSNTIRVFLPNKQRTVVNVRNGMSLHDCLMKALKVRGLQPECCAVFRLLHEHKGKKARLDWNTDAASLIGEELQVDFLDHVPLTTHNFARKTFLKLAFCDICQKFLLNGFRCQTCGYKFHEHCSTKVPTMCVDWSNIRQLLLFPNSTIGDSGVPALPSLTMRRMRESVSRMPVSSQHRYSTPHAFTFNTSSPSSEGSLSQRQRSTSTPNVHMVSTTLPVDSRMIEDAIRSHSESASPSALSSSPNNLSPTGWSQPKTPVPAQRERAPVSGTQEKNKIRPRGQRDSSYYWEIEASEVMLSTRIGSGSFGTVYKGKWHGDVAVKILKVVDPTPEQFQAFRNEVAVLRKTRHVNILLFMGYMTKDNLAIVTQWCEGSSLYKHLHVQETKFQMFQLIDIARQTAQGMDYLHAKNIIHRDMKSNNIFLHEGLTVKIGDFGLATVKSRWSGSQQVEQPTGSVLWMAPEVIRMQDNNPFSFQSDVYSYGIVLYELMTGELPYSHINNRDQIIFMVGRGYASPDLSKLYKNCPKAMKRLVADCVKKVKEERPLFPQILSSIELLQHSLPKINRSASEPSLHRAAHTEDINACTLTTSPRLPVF
Hormonally up-regulated neu tumor-associated kinase (Homo sapiens), sequence (P57058 whole entry): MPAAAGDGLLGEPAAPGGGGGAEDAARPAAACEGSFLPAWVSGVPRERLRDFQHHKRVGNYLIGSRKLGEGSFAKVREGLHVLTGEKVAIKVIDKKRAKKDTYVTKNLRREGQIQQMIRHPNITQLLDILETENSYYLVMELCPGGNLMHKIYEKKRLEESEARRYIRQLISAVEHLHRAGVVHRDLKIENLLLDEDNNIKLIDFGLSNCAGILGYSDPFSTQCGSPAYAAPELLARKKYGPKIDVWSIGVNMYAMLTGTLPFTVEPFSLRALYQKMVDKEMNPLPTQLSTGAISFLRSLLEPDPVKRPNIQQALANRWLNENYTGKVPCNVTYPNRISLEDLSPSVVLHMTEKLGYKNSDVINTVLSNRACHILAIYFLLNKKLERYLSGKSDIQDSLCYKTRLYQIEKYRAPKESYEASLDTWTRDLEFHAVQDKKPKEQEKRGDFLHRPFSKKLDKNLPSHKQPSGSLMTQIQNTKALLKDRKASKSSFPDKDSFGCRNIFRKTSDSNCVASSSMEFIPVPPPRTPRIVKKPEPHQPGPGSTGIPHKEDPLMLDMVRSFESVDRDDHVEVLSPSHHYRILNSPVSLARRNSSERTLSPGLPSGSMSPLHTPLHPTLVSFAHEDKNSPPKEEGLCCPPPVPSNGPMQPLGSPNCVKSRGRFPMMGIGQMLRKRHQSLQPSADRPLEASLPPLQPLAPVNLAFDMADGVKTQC
B2 bradykinin receptor (Homo sapiens), sequence (P30411 whole entry): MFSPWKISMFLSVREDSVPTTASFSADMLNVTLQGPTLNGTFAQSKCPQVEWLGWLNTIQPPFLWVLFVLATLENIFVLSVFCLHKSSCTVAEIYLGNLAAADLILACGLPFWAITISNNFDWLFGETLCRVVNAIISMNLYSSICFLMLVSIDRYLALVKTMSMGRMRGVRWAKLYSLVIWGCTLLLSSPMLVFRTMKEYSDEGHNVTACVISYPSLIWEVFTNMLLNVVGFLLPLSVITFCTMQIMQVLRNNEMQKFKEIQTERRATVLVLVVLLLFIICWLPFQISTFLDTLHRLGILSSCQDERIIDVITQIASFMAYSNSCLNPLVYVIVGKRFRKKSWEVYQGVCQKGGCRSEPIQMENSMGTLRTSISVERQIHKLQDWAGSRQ
Phosphatidylinositol 4,5-bisphosphate 3-kinase catalytic subunit alpha isoform (Homo sapiens), P42336 [H1047L], sequence (P42336 whole entry H1047L, canonical isoform): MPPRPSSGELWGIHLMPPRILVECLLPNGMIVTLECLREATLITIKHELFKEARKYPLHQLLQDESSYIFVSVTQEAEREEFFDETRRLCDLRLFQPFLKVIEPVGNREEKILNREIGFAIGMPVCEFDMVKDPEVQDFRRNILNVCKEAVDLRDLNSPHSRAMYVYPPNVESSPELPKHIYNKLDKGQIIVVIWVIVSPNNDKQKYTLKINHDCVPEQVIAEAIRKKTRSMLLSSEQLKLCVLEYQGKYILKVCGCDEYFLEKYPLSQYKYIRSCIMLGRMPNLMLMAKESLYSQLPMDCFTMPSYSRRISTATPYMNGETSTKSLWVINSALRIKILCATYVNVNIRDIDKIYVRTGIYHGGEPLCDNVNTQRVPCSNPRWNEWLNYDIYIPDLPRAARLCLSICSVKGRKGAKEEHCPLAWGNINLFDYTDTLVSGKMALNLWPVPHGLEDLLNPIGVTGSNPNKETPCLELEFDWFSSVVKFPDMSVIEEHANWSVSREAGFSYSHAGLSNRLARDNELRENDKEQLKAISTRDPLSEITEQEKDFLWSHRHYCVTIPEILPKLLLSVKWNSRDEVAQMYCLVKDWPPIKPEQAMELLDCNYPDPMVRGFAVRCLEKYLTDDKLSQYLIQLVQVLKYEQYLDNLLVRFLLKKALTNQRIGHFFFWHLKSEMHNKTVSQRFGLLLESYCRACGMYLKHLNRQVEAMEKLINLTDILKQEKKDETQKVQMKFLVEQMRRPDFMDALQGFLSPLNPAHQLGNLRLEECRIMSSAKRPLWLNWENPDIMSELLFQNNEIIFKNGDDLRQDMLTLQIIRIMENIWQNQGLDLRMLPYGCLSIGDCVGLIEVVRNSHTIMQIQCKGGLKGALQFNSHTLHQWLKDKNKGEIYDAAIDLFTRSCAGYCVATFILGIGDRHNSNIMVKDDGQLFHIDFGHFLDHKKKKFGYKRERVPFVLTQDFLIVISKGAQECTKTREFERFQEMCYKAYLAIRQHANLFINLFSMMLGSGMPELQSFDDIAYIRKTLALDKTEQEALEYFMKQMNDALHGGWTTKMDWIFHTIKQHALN
Testis-specific serine/threonine-protein kinase 3 (Homo sapiens), sequence (Q96PN8 whole entry): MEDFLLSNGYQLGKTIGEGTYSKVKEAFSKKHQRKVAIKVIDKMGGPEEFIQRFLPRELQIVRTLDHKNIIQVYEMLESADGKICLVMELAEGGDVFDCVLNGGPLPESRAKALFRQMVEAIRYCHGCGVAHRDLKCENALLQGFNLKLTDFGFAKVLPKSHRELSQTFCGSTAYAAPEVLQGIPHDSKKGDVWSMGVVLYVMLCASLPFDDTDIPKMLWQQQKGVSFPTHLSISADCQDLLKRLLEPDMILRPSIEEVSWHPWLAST

COc1ccc2c(c1)O[C@@H](c1ccc(OC)c(OC)c1)C[C@H]2NC(=O)C1(c2ccc3c(c2)OC(F)(F)O3)CC1 [A-1596586]
% Inhibition of Control Values (Mean n=2) [1]: -6.2% | % Inhibition of Control Specific Binding (Mean n=2) [2]: 11.2% | % Inhibition of Control Specific Binding (Mean n=2) [3]: -13.5% | % Inhibition of Control Specific Binding (Mean n=2) [4]: 44.4% | % Inhibition of Control Specific Binding (Mean n=2) [5]: 2.9% | % Inhibition of Control Specific Binding (Mean n=2) [6]: -1.9% | % Inhibition of Control Specific Binding (Mean n=2) (Rattus norvegicus): 2.2% | residual activity [7]: 76% | residual activity [8]: 100% | residual activity [9]: 93% | residual activity [10]: 98% | residual activity [11]: 100% | residual activity [12]: 68% | residual activity [13]: 62% | residual activity [14]: 100% | residual activity [15]: 100% | residual activity [16]: 99% | residual activity [17]: 95% | residual activity [18]: 100% | residual activity [19]: 77% | residual activity [20]: 100% | residual activity [21]: 76% | residual activity [22]: 86% | residual activity [23]: 65% | residual activity [24]: 100% | residual activity [25]: 77% | residual activity [26]: 91% | residual activity [27]: 100% | residual activity [28]: 95% | residual activity [29]: 76% | residual activity [30]: 90% | residual activity [31]: 100% | residual activity [32]: 84% | residual activity [33]: 57% | residual activity [34]: 100% | residual activity [35]: 100% | inhibition [36]: 1.62% | inhibition [37]: -2.72%

COc1ccc2c(c1)O[C@H](c1ccc(OC)c(OC)c1)C[C@@H]2NC(=O)C1(c2ccc3c(c2)OC(F)(F)O3)CC1 [A-1596584]
% Inhibition of Control Values (Mean n=2) [1]: -3.9% | % Inhibition of Control Specific Binding (Mean n=2) [2]: 7.8% | % Inhibition of Control Specific Binding (Mean n=2) [3]: -8.3% | % Inhibition of Control Specific Binding (Mean n=2) [4]: 92.1% | % Inhibition of Control Specific Binding (Mean n=2) [5]: -4% | % Inhibition of Control Specific Binding (Mean n=2) [6]: 5.1% | % Inhibition of Control Specific Binding (Mean n=2) (Rattus norvegicus): 4% | residual activity [7]: 100% | residual activity [8]: 100% | residual activity [9]: 100% | residual activity [10]: 94% | residual activity [11]: 91% | residual activity [12]: 64% | residual activity [13]: 59% | residual activity [14]: 100% | residual activity [15]: 100% | residual activity [16]: 92% | residual activity [17]: 97% | residual activity [18]: 72% | residual activity [19]: 100% | residual activity [20]: 100% | residual activity [21]: 100% | residual activity [22]: 100% | residual activity [23]: 78% | residual activity [24]: 39% | residual activity [25]: 100% | residual activity [26]: 100% | residual activity [27]: 100% | residual activity [28]: 100% | residual activity [29]: 100% | residual activity [30]: 92% | residual activity [31]: 97% | residual activity [32]: 100% | residual activity [33]: 100% | residual activity [34]: 100% | residual activity [35]: 97% | inhibition [36]: -0.83% | inhibition [37]: 0.59%
